One test has as its system HCT-116. The experiment in a line: Antitumor activity against Homo sapiens (human) HCT116 cells assessed as cell growth inhibition after 48 hr by MTT assay. The class given is functional, cell-based. A general note: Formazan colour is commonly taken as a measure of viable cells.
For test [1], the system named is MCF7. The experiment in a line: Antitumor activity against Homo sapiens (human) MCF7 cells assessed as cell growth inhibition after 48 hr by MTT assay. The class given is functional, cell-based.
In test [2] the test system is HepG2. Kind of test: Antitumor activity against Homo sapiens (human) HepG2 cells assessed as cell growth inhibition after 48 hr by MTT assay. The class given is functional, cell-based.
Another test concerns A549. The experiment in a line: Antitumor activity against Homo sapiens (human) A549 cells assessed as cell growth inhibition after 48 hr by MTT assay. The class given is functional, cell-based.
The subject of test [3] is HepG2. Kind of test: Ratio of doxorubicin IC50 to compound IC50 for Homo sapiens (human) HepG2 cells. The format is functional.
The test system of test [4] is MCF7. The experiment in a line: Ratio of doxorubicin IC50 to compound IC50 for Homo sapiens (human) MCF7 cells. The format is functional.
[5] abbreviates: Homo sapiens, HCT-116, 48 h, read-out: IC50.
The mark [6] stands for this setting: Homo sapiens, HepG2, 48 h, read-out: IC50.
Where [7] appears, read: Homo sapiens, A549, 48 h, read-out: IC50.
Setting [8] is: Homo sapiens, MCF7, 48 h, read-out: IC50.

For orientation: IC50 means the midpoint of a concentration-inhibition curve.

As to `CO[C@]1(CC[C@H](C)CO[C@@H]2O[C@H](CO)[C@@H](O)[C@H](O)[C@H]2O)O[C@H]2C[C@H]3[C@@H]4CC[C@@H]5C[C@@H](O[C@@H]6O[C@H](CO)[C@@H](O)[C@H](O)[C@H]6O[C@@H]6O[C@H](CO)[C@H](O)[C@H](O)[C@H]6O)CC[C@]5(C)[C@H]4CC[C@]3(C)[C@H]2[C@@H]1C`, the concentration for half-maximal inhibition (IC50) entry in the test on HCT-116 (hct-116), in the test on MCF7 [1] (mcf7), in the test on HepG2 [2] (hepg2) and in the test on A549 (a549) was “Not Active” each time.
Regarding `COc1cccc2c1C(=O)c1c(O)c3c(c(O)c1C2=O)C[C@@](O)(C(=O)CO)C[C@@H]3O[C@H]1C[C@H](N)[C@H](O)[C@H](C)O1` [DOXORUBICIN], the IC50 in the test on HCT-116 (setting [5]) was found to be 6.86 µM; with HepG2 [2] (setting [6]), 7.36 µM; in the test on A549 (setting [7]), 0.84 µM.
For the compound `C[C@@H]1CC[C@@]2(OC1)O[C@H]1C[C@H]3[C@@H]4CC[C@@H]5C[C@@H](O[C@@H]6O[C@H](CO)[C@@H](O)[C@H](O)[C@H]6O[C@@H]6O[C@H](CO)[C@H](O)[C@H](O)[C@H]6O)CC[C@]5(C)[C@H]4CC[C@]3(C)[C@H]1[C@@H]2C`, the “growth inhibition (GI)” value in the test with HCT-116, with MCF7 [1], in the test on HepG2 [2] and in the test on A549 was “Dose-dependent effect” each time. The half-inhibitory concentration (IC50) in the test on HCT-116 (setting [5]) was 4.4 µM; in the test on MCF7 [1] (setting [8]) it was 4 µM; in the test on HepG2 [2] (setting [6]), 3.5 µM; in the test with A549 (setting [7]) it was 16.5 µM. In the test with HepG2 [3], the “Ratio IC50” value stood at 2.
As to `C[C@@H](CC[C@@]1(O)O[C@H]2C[C@H]3[C@@H]4CC[C@@H]5C[C@@H](O[C@@H]6O[C@H](CO)[C@@H](O)[C@H](O)[C@H]6O[C@@H]6O[C@H](CO)[C@H](O)[C@H](O)[C@H]6O)CC[C@]5(C)[C@H]4CC[C@]3(C)[C@H]2[C@@H]1C)CO[C@@H]1O[C@H](CO)[C@@H](O)[C@H](O)[C@H]1O`, the IC50 entry in the test with HCT-116 (hct-116), with MCF7 [1] (mcf7), in the test on HepG2 [2] (hepg2) and in the test with A549 (a549) was “Not Active” each time.
Regarding `C[C@@H]1CC[C@@]2(OC1)O[C@H]1C[C@H]3[C@@H]4CC[C@@H]5C[C@@H](O[C@@H]6O[C@H](CO)[C@H](O[C@@H]7O[C@H](CO)[C@@H](O)[C@H](O[C@@H]8O[C@H](CO)[C@@H](O)[C@H](O)[C@H]8O)[C@H]7O[C@@H]7O[C@H](CO)[C@H](O)[C@H](O)[C@H]7O[C@@H]7OC[C@@H](O)[C@H](O)[C@H]7O)[C@H](O)[C@H]6O)CC[C@]5(C)[C@H]4CC[C@]3(C)[C@H]1[C@@H]2C` [Desmettianoside C], in the test with MCF7 [4], the “Ratio IC50” value amounted to 2. Besides, the “growth inhibition (GI)” value with HCT-116, in the test with MCF7 [1], in the test with HepG2 [2] and with A549 was “Dose-dependent effect” throughout. Also, the IC50 in the test with HCT-116 (setting [5]) is 2.4 µM; in the test on MCF7 [1] (setting [8]), 2.6 µM; with HepG2 [2] (setting [6]) it was 1.1 µM; with A549 (setting [7]), 10.2 µM.
